In US8853424B2 (Japan Science and Technology Agency, priority 2008, dated 2014):
Where two headings read alike, the source gives them in different places.

Legend:
[1] = tested on: Truncated N-terminal huntington 150 Q-EGFP-Neuron 2a cells; assay: Measurement of x-Fold (polyglutamine aggregation inhibitory activity); format: cell-based
Experimental: In the present invention, the polyglutamine aggregation inhibitory activity (x-Fold) can be measured, for example, by the method described in the Example.
The number of the aggregated cells, and the total number of cells were counted by Array Scan V T1 (manufactured by Cellomics, Pittuburg, USA), and the ratio of the aggregated cells to the total number of cells was determined (x-Fold). […]

transglutaminase (TGase) = assay: Measurement of TG (TGase inhibitory activity, monodansyl cadaverine / N,N-dimethylcasein fluorescence, FDSS 3000); format: biochemical
Summary of the method: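 Compound (1 μL of 10 mM stock) added to 0.1 mL reaction: 100 mM HEPES-NaOH pH 7.5, 1 mM CaCl2, 20 μM monodansyl cadaverine, 0.05 mg/mL N,N-dimethylcasein, 5 μg/mL TGase. Rate of fluorescence change at 340 nm measured; DMSO control set to 100; TG50 is the concentration halving activity.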

[2] = tested on: SOC (store operated calcium channel); assay: Measurement of SOC IC50 (thapsigargin store depletion, calcium re-addition, CHO cells); format: cell-based; settings: read-out: SOC IC50
Experimental: The SOC (store operated calcium channel)-suppressive action can be measured by the method described in the Example and using, for example, FDSS 3000.
CHO cell culture medium was replaced with a BSS solution which is an extracellular fluidfree of calcium, the compound of the present invention was added 1 min later, and 1 μM thapsigargin was allowed to act thereon 2 min later to deplete intracellular calcium store. […]

[3] = polyglutamine aggregation, Truncated N-terminal huntington 150 Q-EGFP-Neuron 2a cells
[4] = ratio of aggregated cells to total number of cells, compound 20 μM, 20 hr, almost 1 without compound, smaller = stronger inhibition
[5] = TGase activity with compound (10 mM, 1 μL in 0.1 ml enzyme reaction solution), DMSO control taken as 100
[6] = TGase inhibitory activity measurement, unit not given
[7] = CHO cells, 1 μM thapsigargin, 2 mM calcium chloride
[8] = polyglutamine aggregation inhibitory activity, Table 1

| Structure (SMILES) | TGase activity remaining (% of DMSO control = 100) (transglutaminase (TGase); [5]) | TGase activity remaining (% of DMSO control = 100) (transglutaminase (TGase); [6]) | IC50 [2, 7] [µM] | IC50 ([2]; Table 1) [µM] | x-Fold [1, 3] | x-Fold [1, 4] | x-Fold [1, 8] |
| --- | --- | --- | --- | --- | --- | --- | --- |
| COc1ccc(B(OCCN)c2ccc(COCc3ccc(B(OCCN)c4ccc(OC)cc4)cc3)cc2)cc1 [Example 412, bis(4,4′-(p-methoxyphenyl-aminoethoxyboryl)benzyl)ether] | 65 | 65 | 2 |  | 0.89 | 0.89 |  |
| CNCCOB(c1ccc(COCc2ccc(B(OCCNC)c3ccc(OC)cc3)cc2)cc1)c1ccc(OC)cc1 [Example 413, bis(4,4′-(p-methoxyphenyl-N-methylaminoethoxyboryl)benzyl)ether] | 28 | 28 | 0.8 |  | 0.81 | 0.81 |  |
| Cc1ccc(B(OCCN)c2ccc(COCc3ccc(B(OCCN)c4ccc(C)c(Cl)c4)cc3)cc2)cc1Cl [Example 420, bis(4,4′-(3-chloro-4-methylphenyl-aminoethoxyboryl)benzyl)ether] | −3 | −3 | 1.2 |  | 0.81 | 0.81 |  |
| CNCCOB(c1ccc(COCc2ccc(B(OCCNC)c3ccc(C)c(Cl)c3)cc2)cc1)c1ccc(C)c(Cl)c1 [Example 421, bis(4,4′-(3-chloro-4-methylphenyl-N-methylaminoethoxyboryl)benzyl)ether] | −1 | −1 | 1.2 |  | 1.03 | 1.03 | 0.87 |
| Cc1ccc(B(OCCN(C)C)c2ccc(COCc3ccc(B(OCCN(C)C)c4ccc(C)c(Cl)c4)cc3)cc2)cc1Cl [Example 422, bis(4,4′-(3-chloro-4-methylphenyl-N,N-dimethylaminoethoxyboryl)benzyl)ether] | 13 | 13 | 1.2 | 0.7 | 0.95 | 0.95 | 0.91 |

More lines, main results first:

| TGase activity remaining (% of DMSO control = 100) (transglutaminase (TGase); [5]) | TGase activity remaining (% of DMSO control = 100) (transglutaminase (TGase); [6]) | IC50 [2, 7] [µM] | IC50 ([2]; Table 1) [µM] | Structure (SMILES) | x-Fold [1, 3] | x-Fold [1, 4] | x-Fold [1, 8] |
| --- | --- | --- | --- | --- | --- | --- | --- |
| 27 | 27 | 1.2 |  | Cc1ccc(B(OCC2CCCCN2)c2ccc(COCc3ccc(B(OCC4CCCCN4)c4ccc(C)c(Cl)c4)cc3)cc2)cc1Cl (centres unmarked) [Example 423, bis(4,4′-(3-chloro-4-methylphenyl-2-piperidylmethoxyboryl)benzyl)ether] | 0.76 | 0.76 |  |
| 22 | 22 | 1.2 |  | CN(C)CCOB(c1ccc(COCc2ccc(B(OCCN(C)C)c3ccc(C(F)(F)F)cc3)cc2)cc1)c1ccc(C(F)(F)F)cc1 [Example 424, bis(4,4′-(p-trifluoromethylphenyl-N,N-dimethylaminoethoxyboryl)benzyl)ether] | 1.03 | 1.03 | 0.69 |
| 130 |  | 0.5 |  | NC(=O)CC(N)C(=O)OB(c1ccc(COCc2ccc(B(OC(=O)C(N)CC(N)=O)c3ccc(C(F)(F)F)cc3)cc2)cc1)c1ccc(C(F)(F)F)cc1 (centres unmarked) [Example 425, bis(4,4′-(p-trifluoromethylphenyl-asparagineboryl)benzyl)ether] |  | 0.9 |  |
| 19 | 19 | 1.2 |  | NCCOB(c1ccc(COCc2ccc(B(OCCN)c3ccc(C(F)(F)F)cc3)cc2)cc1)c1ccc(C(F)(F)F)cc1 [Example 426, bis(4,4′-(p-trifluoromethylphenyl-aminoethoxyboryl)benzyl)ether] | 0.93 | 0.93 |  |
